Laboratory results published in ChEMBL document CHEMBL3509549.

Experiments:
[1] = Arithmetic mean of AUC(0-infinity) of saquinavir mesylate following oral repeat dosing of 1000 mg Invirase Hard Gel Capsules capsules in healthy human; format: ADME, organism-based; settings: both, plasma, read-out: AUC(0-infinity)
[2] = Arithmetic mean of Cmax of saquinavir mesylate following oral repeat dosing of 1000 mg Invirase Hard Gel Capsules capsules in healthy human; format: ADME, organism-based; settings: both, plasma
[3] = Geometric mean of Cmax of saquinavir mesylate following oral repeat dosing of 1000 mg Invirase Hard Gel Capsules capsules in healthy human; format: ADME, organism-based; settings: both, plasma
[4] = Median Tmax of saquinavir mesylate following oral repeat dosing of 1000 mg Invirase Hard Gel Capsules capsules in healthy human; format: ADME, organism-based; settings: both, plasma, read-out: Median Tmax
[5] = Minimum Tmax of saquinavir mesylate following oral repeat dosing of 1000 mg Invirase Hard Gel Capsules capsules in healthy human; format: ADME, organism-based, Plasma; settings: in vivo
[6] = Maximum Tmax of saquinavir mesylate following oral repeat dosing of 1000 mg Invirase Hard Gel Capsules capsules in healthy human; format: ADME, organism-based; settings: both, plasma, read-out: Maximum Tmax
[7] = Arithmetic mean of AUC(0-infinity) of saquinavir mesylate following oral repeat dosing of 1000 mg Invirase Film-coated tablet in healthy human; format: ADME, organism-based; settings: both, plasma, read-out: AUC(0-infinity)
[8] = Geometric mean of AUC(0-infinity) of saquinavir mesylate following oral repeat dosing of 1000 mg Invirase Film-coated tablet in healthy human; format: ADME, organism-based; settings: both, plasma, read-out: AUC(0-infinity)
[9] = Arithmetic mean of Cmax of saquinavir mesylate following oral repeat dosing of 1000 mg Invirase Film-coated tablet in healthy human; format: ADME, organism-based; settings: both, plasma
[10] = Geometric mean of Cmax of saquinavir mesylate following oral repeat dosing of 1000 mg Invirase Film-coated tablet in healthy human; format: ADME, organism-based; settings: both, plasma
[11] = Median Tmax of saquinavir mesylate following oral repeat dosing of 1000 mg Invirase Film-coated tablet in healthy human; format: ADME, organism-based; settings: both, plasma, read-out: Median Tmax
[12] = Minimum Tmax of saquinavir mesylate following oral repeat dosing of 1000 mg Invirase Film-coated tablet in healthy human; format: ADME, organism-based; settings: both, plasma, read-out: Minimum Tmax
[13] = Maximum Tmax of saquinavir mesylate following oral repeat dosing of 1000 mg Invirase Film-coated tablet in healthy human; format: ADME, organism-based; settings: both, plasma, read-out: Maximum Tmax
[14] = Mean exposure of saquinavir mesylate estimated by AUC(0-infinity) following oral repeat dosing of 1000 mg Invirase Hard Gel Capsules capsules in healthy woman; format: ADME, organism-based; settings: female, human, plasma, read-out: AUC(0-infinity)
[15] = Mean exposure of saquinavir mesylate estimated by AUC(0-infinity) following oral repeat dosing of 1000 mg Invirase Film-coated tablet in healthy woman; format: ADME, organism-based; settings: female, human, plasma, read-out: AUC(0-infinity)
[16] = Mean exposure of saquinavir mesylate estimated by AUC(0-infinity) following oral repeat dosing of 1000 mg Invirase Hard Gel Capsules capsules in healthy men; format: ADME, organism-based; settings: male, human, plasma, read-out: AUC(0-infinity)
[17] = Mean exposure of saquinavir mesylate estimated by AUC(0-infinity) following oral repeat dosing of 1000 mg Invirase Film-coated tablet in healthy men; format: ADME, organism-based; settings: male, human, plasma, read-out: AUC(0-infinity)
[18] = Mean exposure of saquinavir mesylate estimated by Cmax following oral repeat dosing of 1000 mg Invirase Hard Gel Capsules capsules in healthy woman; format: ADME, organism-based; settings: female, human, plasma
[19] = Mean exposure of saquinavir mesylate estimated by Cmax following oral repeat dosing of 1000 mg Invirase Film-coated tablet in healthy woman; format: ADME, organism-based; settings: female, human, plasma
[20] = Mean exposure of saquinavir mesylate estimated by Cmax following oral repeat dosing of 1000 mg Invirase Hard Gel Capsules capsules in healthy men; format: ADME, organism-based; settings: male, human, plasma
[21] = Mean exposure of saquinavir mesylate estimated by Cmax following oral repeat dosing of 1000 mg Invirase Film-coated tablet in healthy men; format: ADME, organism-based; settings: male, human, plasma
[22] = Mean exposure of saquinavir mesylate estimated by Cmax following oral repeat dosing of 1000 mg Invirase Hard Gel Capsules capsules in healthy human; format: ADME, organism-based; settings: both, plasma
[23] = Mean exposure of saquinavir mesylate estimated by Cmax following oral repeat dosing of 1000 mg Invirase Film-coated tablet in healthy human; format: ADME, organism-based; settings: both, plasma
[24] = clinical; settings: both, human, plasma, po, 1000 mg
[25] = clinical; settings: both, human, plasma, po, 1000 mg; remark: listed apart in the source
[26] = clinical; settings: both, human, plasma, po, 1000 mg; remark: listed apart in the source
[27] = clinical; settings: both, human, plasma, po, 1000 mg; remark: listed apart in the source

AUC(0-inf) [1]: 1190 ng·h/mL
Cmax [2]: 348 ng/mL
Cmax [3]: 285 ng/mL
Tmax [4]: 4.37 h
Minimum Tmax [5]: 1 h
Tmax [6]: 10 h
AUC(0-inf) [7]: 1510 ng·h/mL
AUC(0-inf) [8]: 1240 ng·h/mL
Cmax [9]: 404 ng/mL
Cmax [10]: 332 ng/mL
Tmax [11]: 3.88 h
Tmax [12]: 1.02 h
Tmax [13]: 6 h
AUC(0-inf) [14]: 1090 ng·h/mL
AUC(0-inf) [15]: 1480 ng·h/mL
AUC(0-inf) [16]: 1040 ng·h/mL
AUC(0-inf) [17]: 1030 ng·h/mL
Cmax [18]: 306 ng/mL
Cmax [19]: 395 ng/mL
Cmax [20]: 265 ng/mL
Cmax [21]: 278 ng/mL
Cmax [22]: 285 ng/mL
Cmax [23]: 332 ng/mL
half-life [24]: 8.29 h
half-life [25]: 7.89 h
half-life [26]: 7.73 h
half-life [27]: 7.51 h
Structure (SMILES): CC(C)(C)NC(=O)[C@@H]1C[C@@H]2CCCC[C@@H]2CN1C[C@@H](O)[C@H](Cc1ccccc1)NC(=O)[C@H](CC(N)=O)NC(=O)c1ccc2ccccc2n1
